Values quoted from earlier work as cited in patent publication US20100080856A1, “Method and composition for postoperative wound healing” (priority 2008, published 2010).

Tested on: wound healing in severe burn patients
Conditions: oral administration, Crit Care Med. 2000, Vol 28, No. 6, 1772-1776

In the case of NCCC[C@H](N)C(=O)O.NCCC[C@H](N)C(=O)O.O=C(O)CCC(=O)C(=O)O [ornithine α-ketoglutarate], the wound healing time is listed as “shortens the wound healing time”.
